In PubChem BioAssay AID220 (DTP/NCI, 2004):
Where “and” joins values, the source holds several entries; their conditions need not be identical. Equal values may be shown once. Records with an inconclusive call do not appear.

Tested on: CD8F1 mice, subcutaneous mammary adenocarcinoma, T/C%
Assay: NCI In Vivo Anticancer Drug Screen. Data for tumor model Mammary Adenocarcinoma CD8F1 (subcutaneous) in CD8F1
Conditions: higher = larger tumour
Method: The antitumor activity of compounds was measured in mice bearing transplantable tumors. Survival or tumor size were measured and the results are expressed as the measurement made in the treated group (T) divided by the measurement made in the vehicle treated control group (C). The tumor model used in this assay is Mammary Adenocarcinoma CD8F1 (subcutaneous) in CD8F1

[1] = endpoint: median tumor weight change, dose: 125.0 mg/kg/injection, schedule: Q01DX001 (ip), vehicle: saline with Tween-80

`O=C(NC/C(Cl)=C/Cl)Oc1cccc2ccccc12` was tested, and the T/C (endpoint: mean tumor weight, dose: 0.78 mg/kg/injection, schedule: Q07DX004 (ip), vehicle: saline) was 78 % of control, the T/C (endpoint: mean tumor weight, dose: 1.56 mg/kg/injection, schedule: Q07DX004 (ip), vehicle: saline) was 91 % of control and the T/C (endpoint: mean tumor weight, dose: 3.12 mg/kg/injection, schedule: Q07DX004 (ip), vehicle: saline) was 112 % of control. For the same molecule, the T/C (endpoint: mean tumor weight, dose: 6.25 mg/kg/injection, schedule: Q07DX004 (ip), vehicle: saline) was 72 % of control and the T/C (endpoint: mean tumor weight, dose: 12.5 mg/kg/injection, schedule: Q07DX004 (ip), vehicle: saline) was 58 % of control.

In the case of `COC1CC(CC2CCC(C)C(C(C)C(=O)O)O2)OC2(OC(C)(C3CCC(C)(C4OC(C5OC(O)(CO)C(C)CC5C)CC4C)O3)CC2C)C1C` (configuration not stated), the T/C (endpoint: median tumor weight (est.), dose: 0.31 mg/kg/injection, schedule: Q07DX005 (ip), vehicle: Klucel (hydroxypropylcellulose) (HPC)) is reported as 112 % of control, the T/C (endpoint: median tumor weight (est.), dose: 0.63 mg/kg/injection, schedule: Q07DX005 (ip), vehicle: Klucel (hydroxypropylcellulose) (HPC)) is reported as 398 % of control and the T/C (endpoint: median tumor weight (est.), dose: 1.25 mg/kg/injection, schedule: Q07DX005 (ip), vehicle: Klucel (hydroxypropylcellulose) (HPC)) is reported as 390 % of control. The T/C (endpoint: median tumor weight (est.), dose: 2.5 mg/kg/injection, schedule: Q07DX005 (ip), vehicle: Klucel (hydroxypropylcellulose) (HPC)) was 47 % of control, the T/C (endpoint: median tumor weight (est.), dose: 5.0 mg/kg/injection, schedule: Q07DX005 (ip), vehicle: Klucel (hydroxypropylcellulose) (HPC)) was 380 % of control and the T/C (endpoint: median tumor weight (est.), dose: 10.0 mg/kg/injection, schedule: Q07DX005 (ip), vehicle: Klucel (hydroxypropylcellulose) (HPC)) was 323 % of control.

For `COC(=O)C(N)Cc1ccc(O)c(O)c1` (configuration not stated), the T/C (endpoint: median tumor weight (est.), dose: 100.0 mg/kg/injection, schedule: Q07DX005 (ip), vehicle: saline) was 195 % of control, the T/C (endpoint: median tumor weight (est.), dose: 400.0 mg/kg/injection, schedule: Q07DX005 (ip), vehicle: saline) was 112 % of control and the T/C (endpoint: median tumor weight (est.), dose: 800.0 mg/kg/injection, schedule: Q07DX005 (ip), vehicle: saline) was 108 % of control.

With `C/C=C(\C)C(=O)OC1C(C)C2(O)C(C=C(CO)CC3(O)C(=O)C(C)=CC32)C2C(C)(C)C12OC(=O)CCCCCCCCC` (configuration not stated) the T/C (endpoint: median tumor weight (est.), dose: 0.06 mg/kg/injection, schedule: Q07DX005 (ip), vehicle: saline + alcohol) was 91 % of control, the T/C (endpoint: median tumor weight (est.), dose: 0.12 mg/kg/injection, schedule: Q07DX005 (ip), vehicle: saline + alcohol) was 76 % of control and the T/C (endpoint: median tumor weight (est.), dose: 0.25 mg/kg/injection, schedule: Q07DX005 (ip), vehicle: saline + alcohol) was 92 % of control.

`COc1cc([C@@H]2c3cc4c(cc3[C@@H](OC3OC5CO[C@@H](c6cccs6)OC5C(O)C3O)[C@H]3COC(=O)[C@H]23)OCO4)cc(OC)c1O` (some centres not stated) was tested, and the T/C (endpoint: median tumor weight (est.), dose: 2.0 mg/kg/injection, schedule: Q07DX005 (ip), vehicle: suspension in saline) was 90 % of control and 103 % of control, the T/C (endpoint: median tumor weight (est.), dose: 4.0 mg/kg/injection, schedule: Q07DX005 (ip), vehicle: saline) was 23 % of control and the T/C (endpoint: median tumor weight (est.), dose: 4.0 mg/kg/injection, schedule: Q07DX005 (ip), vehicle: suspension in saline) was 87 % of control and 100 % of control. The T/C (endpoint: median tumor weight (est.), dose: 8.0 mg/kg/injection, schedule: Q07DX005 (ip), vehicle: suspension in saline) was 81 % of control and 92 % of control, the T/C (endpoint: median tumor weight (est.), dose: 16.0 mg/kg/injection, schedule: Q07DX005 (ip), vehicle: saline) was 47 % of control and the T/C (endpoint: median tumor weight (est.), dose: 32.0 mg/kg/injection, schedule: Q07DX005 (ip), vehicle: saline) was 25 % of control. For the same molecule, the T/C (endpoint: median tumor weight (est.), dose: 32.0 mg/kg/injection, schedule: Q07DX005 (ip), vehicle: suspension in saline) was 51 % of control and 57 % of control, the T/C (endpoint: median tumor weight change, dose: 20.0 mg/kg/injection, schedule: Q01DX001 (ip), vehicle: suspension in saline) was 96 % of control and the T/C (endpoint: median tumor weight change, dose: 40.0 mg/kg/injection, schedule: Q01DX001 (ip), vehicle: suspension in saline) was 74 % of control. The T/C (endpoint: median tumor weight change, dose: 80.0 mg/kg/injection, schedule: Q01DX001 (ip), vehicle: suspension in saline) was 91 % of control, the T/C (endpoint: median tumor weight change, dose: 160.0 mg/kg/injection, schedule: Q01DX001 (ip), vehicle: suspension in saline) was 117 % of control and the T/C (endpoint: median tumor weight change, dose: 320.0 mg/kg/injection, schedule: Q01DX001 (ip), vehicle: suspension in saline) was 80 % of control.

In the case of `CO[C@@H]1[C@H](O)CC[C@]2(CO2)[C@H]1[C@@]1(C)O[C@@H]1CC=C(C)C`, the T/C (endpoint: median tumor weight change, dose: 31.25 mg/kg/injection, schedule: Q01DX001 (ip), vehicle: saline with Tween-80) is reported as 113 % of control, the T/C (endpoint: median tumor weight change, dose: 62.5 mg/kg/injection, schedule: Q01DX001 (ip), vehicle: saline with Tween-80) is reported as 100 % of control and the T/C [1] is reported as 106 % of control. For the same molecule, the T/C (endpoint: median tumor weight change, dose: 250.0 mg/kg/injection, schedule: Q01DX001 (ip), vehicle: saline with Tween-80) was 110 % of control.

With `CN(C)N=Nc1ccccc1` the T/C (endpoint: median tumor weight (est.), dose: 25.0 mg/kg/injection, schedule: Q07DX005 (ip), vehicle: Klucel (hydroxypropylcellulose) (HPC)) was 87 % of control and the T/C (endpoint: median tumor weight (est.), dose: 100.0 mg/kg/injection, schedule: Q07DX005 (ip), vehicle: Klucel (hydroxypropylcellulose) (HPC)) was 78 % of control.

`CC(Cc1ccc(O)cc1)NCC(O)c1ccc(O)c(O)c1` (configuration not stated) was tested, and the T/C (endpoint: median tumor weight (est.), dose: 12.5 mg/kg/injection, schedule: Q07DX005 (ip), vehicle: saline with Tween-80) was 49 % of control, the T/C (endpoint: median tumor weight (est.), dose: 25.0 mg/kg/injection, schedule: Q07DX005 (ip), vehicle: saline with Tween-80) was 90 % of control and the T/C (endpoint: median tumor weight (est.), dose: 50.0 mg/kg/injection, schedule: Q07DX005 (ip), vehicle: saline with Tween-80) was 106 % of control. The T/C (endpoint: median tumor weight (est.), dose: 200.0 mg/kg/injection, schedule: Q07DX005 (ip), vehicle: saline with Tween-80) was 110 % of control and the T/C (endpoint: median tumor weight (est.), dose: 400.0 mg/kg/injection, schedule: Q07DX005 (ip), vehicle: saline with Tween-80) was 84 % of control.

`CCC1CC2CN(CCc3c([nH]c4ccccc34)C(C(=O)OC)(c3cc4c(cc3OC)N(C)C3C(O)(C(=O)OC)C(OC(C)=O)C5(CC)C=CCN6CCC43C65)C2)C1` (configuration not stated) was tested, and the T/C (endpoint: median tumor weight change, dose: 0.31 mg/kg/injection, schedule: Q01DX001 (ip), vehicle: suspension in saline) was 99 % of control, the T/C (endpoint: median tumor weight change, dose: 0.62 mg/kg/injection, schedule: Q01DX001 (ip), vehicle: saline) was 165 % of control and the T/C (endpoint: median tumor weight change, dose: 0.62 mg/kg/injection, schedule: Q01DX001 (ip), vehicle: suspension in saline) was 59 % of control. The T/C (endpoint: median tumor weight change, dose: 1.25 mg/kg/injection, schedule: Q01DX001 (ip), vehicle: saline) was 110 % of control, the T/C (endpoint: median tumor weight change, dose: 1.25 mg/kg/injection, schedule: Q01DX001 (ip), vehicle: suspension in saline) was 105 % of control and the T/C (endpoint: median tumor weight change, dose: 2.5 mg/kg/injection, schedule: Q01DX001 (ip), vehicle: suspension in saline) was 88 % of control. For the same molecule, the T/C (endpoint: median tumor weight change, dose: 5.0 mg/kg/injection, schedule: Q01DX001 (ip), vehicle: saline) was 184 % of control, the T/C (endpoint: median tumor weight change, dose: 5.0 mg/kg/injection, schedule: Q01DX001 (ip), vehicle: suspension in saline) was 109 % of control and the T/C (endpoint: median tumor weight change, dose: 10.0 mg/kg/injection, schedule: Q01DX001 (ip), vehicle: saline) was 99 % of control. The T/C (endpoint: median tumor weight change, dose: 10.0 mg/kg/injection, schedule: Q01DX001 (ip), vehicle: suspension in saline) was 70 % of control.

`c1ccc2c(c1)-c1ccccc1C1NC21` (configuration not stated) was tested, and the T/C (endpoint: median tumor weight change, dose: 62.0 mg/kg/injection, schedule: Q01DX001 (ip), vehicle: saline with Tween-80) was 58 % of control.

In the case of `COc1ccc(C[C@H](N)C(=O)NC2C(CO)OC(n3cnc4c(N(C)C)ncnc43)C2O)cc1` (some centres not stated), the T/C (endpoint: median tumor weight (est.), dose: 48.0 mg/kg/injection, schedule: Q07DX005 (ip), vehicle: saline) is reported as 90 % of control, the T/C (endpoint: median tumor weight (est.), dose: 96.0 mg/kg/injection, schedule: Q07DX005 (ip), vehicle: saline) is reported as 63 % of control and the T/C (endpoint: median tumor weight (est.), dose: 192.0 mg/kg/injection, schedule: Q07DX005 (ip), vehicle: saline) is reported as 62 % of control. The T/C (endpoint: median tumor weight (est.), dose: 384.0 mg/kg/injection, schedule: Q07DX005 (ip), vehicle: saline) was 16 % of control.

With `CCCCCC[Se][Se]CCCCCC` the T/C (endpoint: median tumor weight change, dose: 31.25 mg/kg/injection, schedule: Q01DX001 (ip), vehicle: Klucel (hydroxypropylcellulose) (HPC)) was 116 % of control and the T/C (endpoint: median tumor weight change, dose: 62.5 mg/kg/injection, schedule: Q01DX001 (ip), vehicle: Klucel (hydroxypropylcellulose) (HPC)) was 159 % of control.

In the case of `C=C1N(C)c2ccccc2C1(C)C`, the T/C [1] is reported as 115 % of control.

In the case of `O=C(Nc1nncs1)c1cccs1`, the T/C [1] is reported as 92 % of control and 100 % of control.

For `COc1cccc2c1C(=O)c1c(O)c3c(c(O)c1C2=O)C[C@@](O)(C(C)=O)C[C@@H]3OC1CC(N)C(O)C(C)O1` (some centres not stated), the T/C (endpoint: median tumor weight (est.), dose: 0.5 mg/kg/injection, schedule: Q07DX005 (ip), vehicle: water) was 41 % of control, the T/C (endpoint: median tumor weight (est.), dose: 1.0 mg/kg/injection, schedule: Q07DX005 (ip), vehicle: water) was 43 % of control and the T/C (endpoint: median tumor weight (est.), dose: 1.2 mg/kg/injection, schedule: Q07DX005 (ip), vehicle: saline) was 91 % of control. The T/C (endpoint: median tumor weight (est.), dose: 1.78 mg/kg/injection, schedule: Q07DX005 (ip), vehicle: water) was 43 % of control, the T/C (endpoint: median tumor weight (est.), dose: 1.8 mg/kg/injection, schedule: Q07DX005 (ip), vehicle: saline) was 72 % of control and the T/C (endpoint: median tumor weight (est.), dose: 2.0 mg/kg/injection, schedule: Q07DX005 (ip), vehicle: water) was 38 % of control. The T/C (endpoint: median tumor weight (est.), dose: 2.67 mg/kg/injection, schedule: Q07DX005 (ip), vehicle: water) was 20 % of control and the T/C (endpoint: median tumor weight (est.), dose: 2.7 mg/kg/injection, schedule: Q07DX005 (ip), vehicle: saline) was 61 % of control.
